Data taken from US5219884A, “Immunosuppressant” (Taito Co., Ltd., priority 1990, dated 1993).
Like-named read-outs stand apart in the source and are kept apart here.

What was measured:
[1] = test system: IL2-dependent mouse cell line CTLL-2; assay: suppression of IL-2 induced 3H-thymidine incorporation of CTLL-2; assay type: cell-based; conditions: for inhibition at 0.1 µg/mL / inhibition at 10 µg/mL / inhibition at 0.01 µg/mL / inhibition at 1 µg/mL: Mus musculus; for inhibition at 0.1 µg/mL / inhibition at 10 µg/mL / inhibition at 0.01 µg/mL: read-out: Suppression
Description: IL2-dependent mouse cell line CTLL-2 cells were suspended in the RPMI1640 culture medium supplemented with 30% FCS to a concentration of 2×10^5 cells/ml. The suspension (50 μl) and 50 μl of concanavalin A-stimulated rat spleen cell culture supernatants containing IL2 were added to each well of 96-well microculture plates in which 100 μl of the test substance had been placed. After culturing at 37° C. in an atmosphere of 5% carbon dioxide for 20, 44, or 68 hours, 0.5 μCi/well of ^3 H-thymidine was added, and cultured for 4 hours under the same conditions. After termination of the culture, the cells were harvested by a cell harvester, and the radioactivity incorporated into the cells was measured by a liquid scintillation counter.

mouse L929 cells = assay: cytotoxicity to mouse L929 cells; assay type: cell-based; conditions: 550 nm
Description: Cytotoxicity to mouse L929 cells was assayed as follows:
L929 cells were suspended to the concentration of 1.5×10^5 cells/ml in the F12 culture medium supplemented with 10% FCS. One hundred μl of the suspension was added to each well of 96-well microculture plates, and cultured at 37° C. in an atmosphere of 5% carbon dioxide for 24 hours, to which 100 μl of the test solution was added and cultured for further 48 hours. After the culture, 100 μl of the supernatant was removed and the absorbancy at 550 nm was measured in the same way as the colormetry using MTT in Experimental Example 1. The percent suppression was calculated by the following formula used as the index of cytotoxicity. [formula]

in vitro = assay type: cell-based, human; conditions: human, 1.0 μg/ml, read-out: Suppression
Description: (§1) Cytotoxicity to human tumor cell lines was examined as follows:
(§2) Cells of human cell lines, K562, MOLT4, U937, HL60, KATOIII, KB, PC-6, PC-14 and CCRF-CEM were separately suspended to the concentration of 2×10^5 cells/ml in the RPMI1640 culture medium supplemented with 20% FCS. Fifty μl of this suspension was added to each well of 96-well microculture plates to which 50 μl of the test solution had been added. After culturing at 37° C. in an atmosphere of 5% carbon dioxide for 72 hours, the absorbancy at 550 nm was measured in the same way as the colorimetry using MTT in Experimental Example 1, and the percent suppression was calculated in the same manner as in Experimental Example 14, which was used as the index of cytotoxicity.

CCRF-CEM = assay: in vitro; assay type: cell-based, human
Description: as §1, §2

HL60 = assay: in vitro; assay type: cell-based, human
Description: as §1, §2

K562 = assay: in vitro; assay type: cell-based, human
Description: as §1, §2

KB = assay: in vitro; assay type: cell-based, human
Description: as §1, §2

PC-14 = assay: in vitro; assay type: cell-based, human
Description: as §1, §2

U937 = assay: in vitro; assay type: cell-based, human
Description: as §1, §2

[2] = cytotoxicity to tumor cell line MOLT4; assay type: cell-based, human; conditions: human, molt4 cells, 0.1 μg/ml; read-out: Suppression
Description: as §1, §2

MOLT4 = assay: cytotoxicity to tumor cell line MOLT4; assay type: cell-based, human
Description: as §1, §2

Molecule `CCCCCCC(=O)CCCCCC/C=C/CC(O)C(O)C(N)(CO)C(=O)O` (stereo not shown) [Example 1] has a 3H-thymidine uptake ([1]; 24 hrs, 0.01 μg/ml) of 6003 cpm, a 3H-thymidine uptake ([1]; 24 hrs, 0.1 μg/ml) of 3722 cpm and a 3H-thymidine uptake ([1]; 24 hrs, 1 μg/ml) of 3977 cpm. The 3H-thymidine uptake ([1]; 24 hrs, 10 μg/ml) was 1968 cpm, the 3H-thymidine uptake ([1]; 48 hrs, 0.01 μg/ml) was 19592 cpm and the 3H-thymidine uptake ([1]; 48 hrs, 0.1 μg/ml) was 7324 cpm. For the same molecule, the 3H-thymidine uptake ([1]; 48 hrs, 1 μg/ml) was 4794 cpm, the 3H-thymidine uptake ([1]; 48 hrs, 10 μg/ml) was 1649 cpm and the 3H-thymidine uptake ([1]; 72 hrs, 0.01 μg/ml, control 78515 cpm) was 56688 cpm. The 3H-thymidine uptake ([1]; 72 hrs, 0.1 μg/ml, control 78515 cpm) was 2436 cpm, the 3H-thymidine uptake ([1]; 72 hrs, 1 μg/ml, control 78515 cpm) was 846 cpm and the 3H-thymidine uptake ([1]; 72 hrs, 10 μg/ml, control 78515 cpm) was 478 cpm. The inhibition at 0.1 µg/mL ([1]; CTLL-2, 24 h) was 45.5%, the inhibition at 10 µg/mL ([1]; CTLL-2, 72 h) was 100% and the inhibition at 0.01 µg/mL ([1]; CTLL-2, 24 hrs, 0.01 μg/ml) was 10.3%. For the same molecule, the inhibition at 1 µg/mL ([1]; CTLL-2, 24 hrs, 1 μg/ml) was 41.5%, the inhibition at 10 µg/mL ([1]; CTLL-2, 24 hrs, 10 μg/ml) was 72.5% and the inhibition at 0.01 µg/mL ([1]; CTLL-2, 48 hrs, 0.01 μg/ml) was 22.7%. It also gave an inhibition at 0.1 µg/mL ([1]; CTLL-2, 48 hrs, 0.1 μg/ml) of 72.2%, an inhibition at 1 µg/mL ([1]; CTLL-2, 48 hrs, 1 μg/ml) of 82.4% and an inhibition at 10 µg/mL ([1]; CTLL-2, 48 hrs, 10 μg/ml) of 95.1%. For the same molecule, the inhibition at 0.01 µg/mL ([1]; CTLL-2, 72 hrs, 0.01 μg/ml, control 78515 cpm) was 28%, the inhibition at 0.1 µg/mL ([1]; CTLL-2, 72 hrs, 0.1 μg/ml, control 78515 cpm) was 97.7% and the inhibition at 1 µg/mL ([1]; CTLL-2, 72 hrs, 1 μg/ml, control 78515 cpm) was 99.8%. It also gave an Absorbancy (mouse L929 cells; 1 μg/ml) of 0.699, an Absorbancy (mouse L929 cells; 10 μg/ml) of 0.693 and an Absorbancy (mouse L929 cells; 100 μg/ml) of 0.321. For the same molecule, the cytotoxicity at 72 h (in vitro; hl60 cells) was 38.2%, the cytotoxicity at 72 h (in vitro; pc-14 cells) was 7% and the Absorbancy (CCRF-CEM; 0.01 μg/ml) was 0.678. For the same molecule, the Absorbancy (CCRF-CEM; 0.1 μg/ml) was 0.709, the Absorbancy (CCRF-CEM; 1.0 μg/ml) was 0.660 and the Absorbancy (CCRF-CEM; 10.0 μg/ml) was 0.637. The Absorbancy (CCRF-CEM; 100.0 μg/ml) was 0.013, the Absorbancy (HL60; 0.1 μg/ml) was 0.402 and the Absorbancy (HL60; 1.0 μg/ml) was 0.390. It also gave an Absorbancy (HL60; 10.0 μg/ml) of 0.377, an Absorbancy (HL60; 100.0 μg/ml) of 0.101 and an Absorbancy (K562; 0.1 μg/ml) of 0.886. For the same molecule, the Absorbancy (K562; 1.0 μg/ml) was 0.905, the Absorbancy (K562; 10.0 μg/ml) was 0.929 and the Absorbancy (K562; 100.0 μg/ml) was 0.583. It also gave an Absorbancy (KB; 0.01 μg/ml) of 0.898, an Absorbancy (KB; 0.1 μg/ml) of 0.865 and an Absorbancy (KB; 1.0 μg/ml) of 0.879. For the same molecule, the Absorbancy (KB; 10.0 μg/ml) was 0.886, the Absorbancy (KB; 100.0 μg/ml) was 0.025 and the Absorbancy (PC-14; 0.01 μg/ml) was 0.801. The Absorbancy (PC-14; 0.1 μg/ml) was 0.770, the Absorbancy (PC-14; 1.0 μg/ml) was 0.732 and the Absorbancy (PC-14; 10.0 μg/ml) was 0.751. It also gave an Absorbancy (PC-14; 100.0 μg/ml) of 0.074, an Absorbancy (U937; 0.1 μg/ml) of 0.619 and an Absorbancy (U937; 1.0 μg/ml) of 0.567. It also gave an Absorbancy (U937; 10.0 μg/ml) of 0.497, an Absorbancy (U937; 100.0 μg/ml) of 0.156 and a cytotoxicity at 72 h [2] of 9.4%. The Absorbancy (MOLT4; 0.1 μg/ml) was 0.560, the Absorbancy (MOLT4; 1.0 μg/ml) was 0.559 and the Absorbancy (MOLT4; 10.0 μg/ml) was 0.499. For the same molecule, the Absorbancy (MOLT4; 100.0 μg/ml) was 0.074.
